Experiments:
[1] = system: PGF2a-stimulated rat uterine muscle contraction; assay: Inhibition of PGF2a-stimulated rat uterine muscle strip contraction (organ bath); assay type: cell-based; conditions: 20 μg/ml compound pretreatment for 10 min before PGF2a (1 μM)
Procedure: (§1) Uterine relaxing activities on OTC- and KCl-stimulated rat uterine muscle contraction were carried out according to the method described by Ostad S N, Soodi M, Shariffzadeh M, Khorshidi N, and Marzban H. (The effect of fennel essential oil on uterine contraction as a model for dysmenorrhea, pharmacology and toxicology study. Journal of Ethnopharmacology 2001; 76: 299-304.). Female virgin Sprague-Dawley rats (200 g to 300 g) were obtained from the Laboratory Animal Center at Yang-Ming University. They were primed with 5 mg/kg of estradiol (Sigma-Aldrich) 24 hours before the experiments, and then sacrificed by CO2 asphyxiation. Uterine strips free from adhering tissues were mounted under a resting tension of 1 g in a 10 ml organ bath containing dejalon solution gassed with carbogen (95% O2 and 5% CO2) at 31° C., which were then allowed to equilibrate for at least 1 hour. To evaluate the effect on the contractile response induced by PGF2a, a modified Locke-Ringer solution and a maintained temperature of 28° C. were used according to the method described by Murata. P, Hayakawa T, Satoh K, Kase Y, Ishige A, and Sasaki H. (Effects of Dai-kenchu-to, a herbal medicine, on uterine and intestinal motility. Phytotherapy Research 2001; 15: 302-6). Contractions were recorded by force displacements transducers (Grass Instruments USA) using MP100 workstation software (Biopac Systems USA) on a PC. […]

[2] = system: KCl-stimulated rat uterine muscle contraction; assay: Inhibition of KCl-stimulated rat uterine muscle strip contraction (organ bath); assay type: cell-based; conditions: 20 μg/ml compound pretreatment for 10 min before KCl (60 mM)
Procedure: as §1

## C=CC(C)(O)CCC=C(C)C (stereo not shown) [linalool]
[1]
  inhibition of muscle contraction: didn't show obvious inhibition
[2]
  inhibition at 20 µg/mL: 27 to 46%

## Cc1ccc(C(C)C)c(O)c1 [thymol]
[1]
  inhibition of muscle contraction: didn't show obvious inhibition
[2]
  inhibition at 20 µg/mL: 27 to 46%

Source: US7514106B2, “Compositions and methods for uterine relaxing” (Yangsen Biotechnology Co., Ltd., priority 2006, dated 2009)
